The record followed here is patent publication US20210238173A1, “MITOGEN-ACTIVATED PROTEIN KINASE KINASE 7 INHIBITORS” (Yeda Research and Development Co. Ltd., priority 2018, published 2021).

For assay [1], the system named is pATF2 in HEK293 cells. Briefly: pATF2 inhibition in HEK293 cells. The format is cell-based. Conditions: Homo sapiens. On the procedure: HEK293, Beas2B and 3T3 cells were plated 24 hours before procedure on 384 well clear bottom black flat plates (Corning) pre-coated with Fibronectin (Sigma) diluted in PBS to a concentration of 5 μg/ml 45 minutes prior to cells introduction. Cells were plated using Multidrop™ Combi reagent dispenser (Thermo Fisher Scientific). Compound, reagents and antibody dispensing as well as washes were performed with a CyBio liquid handler (Analytik). Cells were pre-incubated with a small molecule or up to 1% DMSO for 2 h before fixation. HEK293, 3T3 or Beas2B cells were treated with 0.6M/0.2M/0.2M D-Sorbitol/PBS (Sigma) for 20/40/40 min. respectively, before fixation. Media was removed and wells were immediately fixed with 150 μl per well of 3.7% formaldehyde/PBS fixing solution for 20 min. Formaldehyde was then aspired and cells were permeabilized with 150 μl of 0.5% Triton x-100/PBS solution for 10 min. After aspiration cells were washed with ice-cold methanol and stored at −20° C., for 10 min. Methanol was aspired and cells were blocked with 150 μl blocking buffer (LICOR) for 90 min. Primary antibody Phospho-SAPK/JNK T183/Y185 (CST; 9251S) was diluted 1:1000 in blocking buffer and was applied 50 μl per well, except control wells to which only blocking buffer was applied, O.N. (16 h) at 4° C. with mild shaking. […] Wells signals were analyzed with Odyssey software. […]
To rapidly assess the cellular activity (EC50) with full dose response curves of the MKK7 covalent inhibitors, according to some embodiments of the present invention, an in-cell western assay was adapted to a 384 well plate format over traditional western blot, and monitored phospho-JNK (pJNK) levels in response to osmotic shock. […] The compound's activity was assessed by pre-treating cells with either compound or DMSO for 2 hours, followed by Sorbitol stimulation. The response of pJNK, and its substrates, pc-Jun and pATF2, was measured, as well as pP38, which is a substrate of MKK4 but not MKK7, and pERK in HEK293 cells, and the results are presented in Table 5 below.

For assay [2], the system named is pERK in HEK293 cells. Briefly: pERK response in HEK293 cells. Format: cell-based. Conditions: at 10 μM. On the procedure: To rapidly assess the cellular activity (EC50) with full dose response curves of the MKK7 covalent inhibitors, according to some embodiments of the present invention, an in-cell western assay was adapted to a 384 well plate format over traditional western blot, and monitored phospho-JNK (pJNK) levels in response to osmotic shock. We first characterized the dynamics of pJNK in response to sorbitol. Sufficient dynamic range for pJNK is achieved at 20 minutes in HEK293 cells and at 40 minutes in 3T3 and Beas2B cells. The compound's activity was assessed by pre-treating cells with either compound or DMSO for 2 hours, followed by Sorbitol stimulation. The response of pJNK, and its substrates, pc-Jun and pATF2, was measured, as well as pP38, which is a substrate of MKK4 but not MKK7, and pERK in HEK293 cells, and the results are presented in Table 5 below.
With similar values for pcJun (2.26 μM and 1.67 μM, respectively) and pATF2 (2.79 μM 5.19 μM, respectively).

The target of assay [3] is ABL1 (Homo sapiens, UniProt P00519). Briefly: Kinome selectivity screen ABL1. Conditions: 1 μM compound. The format is biochemical. As for the experimental part:
(§1) Kinome Selectivity Screen:
(§2) Kinase selectivity was assessed using the Life Technologies SelectScreen Kinase Profiling Service in a custom panel of 76 kinases selected to provide broad representative coverage of all kinase families. Kinase activity assays employed either the Z′-LYTE or Adapta assay technologies with ATP concentrations at or near the KM, ATP for each kinase and a test compound concentration of 1 μM.

Assay [4] has as its target AKT1 (PKB alpha) (Homo sapiens, UniProt P31749). Briefly: Kinome selectivity screen AKT1. The format is biochemical. Conditions: 1 μM compound. On the procedure:
as §1, §2

Assay [5] addresses AURKB (Aurora B) (Homo sapiens, UniProt Q96GD4). Briefly: Kinome selectivity screen AURKB. Format: biochemical. Conditions: 1 μM compound. On the procedure:
as §1, §2

In assay [6] the target is CDK1/cyclin B (Homo sapiens, UniProt P06493). Briefly: Kinome selectivity screen CDK1/cyclin B. The format is biochemical. Conditions: 1 μM compound. As for the experimental part:
as §1, §2

The target of assay [7] is CSNK1G2 (CK1 gamma 2) (Homo sapiens, UniProt P78368). Briefly: Kinome selectivity screen CSNK1G2. Format: biochemical. Conditions: 1 μM compound. As for the experimental part: as §1, §2
Assay [8] addresses DAPK3 (ZIPK) (Homo sapiens, UniProt O43293). Briefly: Kinome selectivity screen DAPK3. The format is biochemical. Conditions: 1 μM compound. As for the experimental part: as §1, §2
The target in assay [9] is DYRK3 (Homo sapiens, UniProt O43781). Briefly: Kinome selectivity screen DYRK3. Format: biochemical. Conditions: 1 μM compound. As for the experimental part:
as §1, §2

The target in assay [10] is EGFR (ErbB1) (Homo sapiens, UniProt P00533). Briefly: Kinome selectivity screen EGFR. The format is biochemical. Conditions: 1 μM compound. As for the experimental part: as §1, §2
Assay [11] concerns the target EPHB1 (Homo sapiens, UniProt P54762). Briefly: Kinome selectivity screen EPHB1. Format: biochemical. Conditions: 1 μM compound. On the procedure:
as §1, §2

Assay [12] has as its target INSR (Homo sapiens, UniProt P06213). Briefly: Kinome selectivity screen INSR. Format: biochemical. Conditions: 1 μM compound. On the procedure: as §1, §2
Assay [13] has as its target KDR (VEGFR2) (Homo sapiens, UniProt P35968). Briefly: Kinome selectivity screen KDR. The format is biochemical. Conditions: 1 μM compound. On the procedure: as §1, §2
Assay [14] concerns the target MAP3K8 (COT) (Homo sapiens, UniProt P41279). Briefly: Kinome selectivity screen MAP3K8. Format: biochemical. Conditions: 1 μM compound. On the procedure: as §1, §2
The target of assay [15] is MAP3K9 (MLK1) (Homo sapiens, UniProt P80192). Briefly: Kinome selectivity screen MAP3K9. Format: biochemical. Conditions: 1 μM compound. On the procedure:
as §1, §2

Assay [16] deals with NEK7 (Homo sapiens, UniProt Q8TDX7). Briefly: Kinome selectivity screen NEK7. The format is biochemical. Conditions: 1 μM compound. On the procedure:
as §1, §2

The target of assay [17] is PDK1 Direct (Homo sapiens, UniProt O15530). Briefly: Kinome selectivity screen PDK1 Direct. Format: biochemical. Conditions: 1 μM compound. As for the experimental part:
as §1, §2

For assay [18], the target named is PIM2 (Homo sapiens, UniProt Q9P1W9). Briefly: Kinome selectivity screen PIM2. The format is biochemical. Conditions: 1 μM compound. On the procedure:
as §1, §2

For assay [19], the target named is PRKCE (PKC epsilon) (Homo sapiens, UniProt Q02156). Briefly: Kinome selectivity screen PRKCE. Format: biochemical. Conditions: 1 μM compound. As for the experimental part: as §1, §2
The target of assay [20] is RPS6KA3 (RSK2) (Homo sapiens, UniProt P51812). Briefly: Kinome selectivity screen RPS6KA3. The format is biochemical. Conditions: 1 μM compound. On the procedure:
as §1, §2

Assay [21] concerns the target TAOK2 (TAO1) (Homo sapiens, UniProt Q9UL54). Briefly: Kinome selectivity screen TAOK2. Conditions: 1 μM compound. Format: biochemical. As for the experimental part:
as §1, §2

Chain of NEK7 (Q8TDX7 whole entry): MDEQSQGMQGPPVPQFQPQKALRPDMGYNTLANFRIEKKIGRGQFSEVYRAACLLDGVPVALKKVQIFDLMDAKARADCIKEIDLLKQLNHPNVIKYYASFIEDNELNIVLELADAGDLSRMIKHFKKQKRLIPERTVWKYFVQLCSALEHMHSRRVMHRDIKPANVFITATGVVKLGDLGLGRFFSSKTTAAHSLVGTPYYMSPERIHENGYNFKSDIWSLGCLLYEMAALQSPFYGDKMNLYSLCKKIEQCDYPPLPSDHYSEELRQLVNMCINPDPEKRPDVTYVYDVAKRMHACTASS
Chain of EPHB1 (P54762 18-984): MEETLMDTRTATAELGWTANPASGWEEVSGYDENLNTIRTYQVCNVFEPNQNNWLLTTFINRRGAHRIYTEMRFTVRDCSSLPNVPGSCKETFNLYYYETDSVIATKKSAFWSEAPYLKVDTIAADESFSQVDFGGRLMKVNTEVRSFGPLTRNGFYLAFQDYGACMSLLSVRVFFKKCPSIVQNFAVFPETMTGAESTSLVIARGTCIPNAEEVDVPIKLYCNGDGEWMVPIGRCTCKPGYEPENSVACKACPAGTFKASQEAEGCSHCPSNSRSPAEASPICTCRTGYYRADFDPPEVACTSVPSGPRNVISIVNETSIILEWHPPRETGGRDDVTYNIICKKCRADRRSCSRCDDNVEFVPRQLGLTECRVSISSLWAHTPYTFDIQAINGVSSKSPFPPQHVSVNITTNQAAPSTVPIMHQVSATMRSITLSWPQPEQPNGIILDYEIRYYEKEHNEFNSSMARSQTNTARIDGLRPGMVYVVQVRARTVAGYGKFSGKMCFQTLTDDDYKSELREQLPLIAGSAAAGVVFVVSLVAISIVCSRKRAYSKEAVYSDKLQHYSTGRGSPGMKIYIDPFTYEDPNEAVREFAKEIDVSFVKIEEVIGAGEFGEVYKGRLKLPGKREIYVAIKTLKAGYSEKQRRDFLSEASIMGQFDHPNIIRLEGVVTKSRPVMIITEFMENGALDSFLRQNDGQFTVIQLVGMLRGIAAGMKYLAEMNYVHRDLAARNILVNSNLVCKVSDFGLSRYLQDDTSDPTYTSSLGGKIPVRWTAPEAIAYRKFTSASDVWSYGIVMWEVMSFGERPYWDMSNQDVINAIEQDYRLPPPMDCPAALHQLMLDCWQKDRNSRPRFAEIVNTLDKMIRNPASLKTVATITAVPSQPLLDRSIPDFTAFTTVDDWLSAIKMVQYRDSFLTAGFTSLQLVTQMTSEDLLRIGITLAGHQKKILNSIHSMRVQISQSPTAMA
Chain of ABL1 (P00519 whole entry): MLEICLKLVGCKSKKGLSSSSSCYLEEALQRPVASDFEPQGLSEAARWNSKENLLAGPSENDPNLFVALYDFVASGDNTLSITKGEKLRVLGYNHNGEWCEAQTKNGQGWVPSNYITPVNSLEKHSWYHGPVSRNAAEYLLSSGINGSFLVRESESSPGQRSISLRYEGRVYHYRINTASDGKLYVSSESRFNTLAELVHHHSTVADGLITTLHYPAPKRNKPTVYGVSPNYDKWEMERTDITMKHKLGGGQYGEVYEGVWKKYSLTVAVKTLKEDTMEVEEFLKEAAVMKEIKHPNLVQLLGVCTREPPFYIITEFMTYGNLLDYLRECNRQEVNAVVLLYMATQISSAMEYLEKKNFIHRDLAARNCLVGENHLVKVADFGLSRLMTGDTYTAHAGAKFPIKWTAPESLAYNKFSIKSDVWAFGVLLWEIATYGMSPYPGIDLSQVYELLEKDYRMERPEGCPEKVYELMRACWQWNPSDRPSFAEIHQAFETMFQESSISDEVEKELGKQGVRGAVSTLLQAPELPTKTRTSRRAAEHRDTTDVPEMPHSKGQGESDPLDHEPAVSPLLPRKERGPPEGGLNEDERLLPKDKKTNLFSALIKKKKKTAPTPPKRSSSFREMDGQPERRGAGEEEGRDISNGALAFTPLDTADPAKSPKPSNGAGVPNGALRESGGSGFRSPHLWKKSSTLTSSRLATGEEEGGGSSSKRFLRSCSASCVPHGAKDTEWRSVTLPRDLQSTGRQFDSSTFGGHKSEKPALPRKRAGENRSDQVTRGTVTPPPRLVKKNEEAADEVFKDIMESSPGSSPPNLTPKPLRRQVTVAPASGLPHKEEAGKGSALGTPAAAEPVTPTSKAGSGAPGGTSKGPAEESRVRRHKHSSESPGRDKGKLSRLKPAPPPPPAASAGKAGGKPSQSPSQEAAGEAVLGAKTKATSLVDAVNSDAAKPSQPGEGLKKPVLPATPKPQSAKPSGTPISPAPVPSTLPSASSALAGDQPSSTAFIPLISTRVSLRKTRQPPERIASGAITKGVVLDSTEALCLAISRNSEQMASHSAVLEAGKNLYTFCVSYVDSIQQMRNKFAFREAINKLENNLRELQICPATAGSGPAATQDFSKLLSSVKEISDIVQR
Chain of KDR (VEGFR2) (P35968 20-1356): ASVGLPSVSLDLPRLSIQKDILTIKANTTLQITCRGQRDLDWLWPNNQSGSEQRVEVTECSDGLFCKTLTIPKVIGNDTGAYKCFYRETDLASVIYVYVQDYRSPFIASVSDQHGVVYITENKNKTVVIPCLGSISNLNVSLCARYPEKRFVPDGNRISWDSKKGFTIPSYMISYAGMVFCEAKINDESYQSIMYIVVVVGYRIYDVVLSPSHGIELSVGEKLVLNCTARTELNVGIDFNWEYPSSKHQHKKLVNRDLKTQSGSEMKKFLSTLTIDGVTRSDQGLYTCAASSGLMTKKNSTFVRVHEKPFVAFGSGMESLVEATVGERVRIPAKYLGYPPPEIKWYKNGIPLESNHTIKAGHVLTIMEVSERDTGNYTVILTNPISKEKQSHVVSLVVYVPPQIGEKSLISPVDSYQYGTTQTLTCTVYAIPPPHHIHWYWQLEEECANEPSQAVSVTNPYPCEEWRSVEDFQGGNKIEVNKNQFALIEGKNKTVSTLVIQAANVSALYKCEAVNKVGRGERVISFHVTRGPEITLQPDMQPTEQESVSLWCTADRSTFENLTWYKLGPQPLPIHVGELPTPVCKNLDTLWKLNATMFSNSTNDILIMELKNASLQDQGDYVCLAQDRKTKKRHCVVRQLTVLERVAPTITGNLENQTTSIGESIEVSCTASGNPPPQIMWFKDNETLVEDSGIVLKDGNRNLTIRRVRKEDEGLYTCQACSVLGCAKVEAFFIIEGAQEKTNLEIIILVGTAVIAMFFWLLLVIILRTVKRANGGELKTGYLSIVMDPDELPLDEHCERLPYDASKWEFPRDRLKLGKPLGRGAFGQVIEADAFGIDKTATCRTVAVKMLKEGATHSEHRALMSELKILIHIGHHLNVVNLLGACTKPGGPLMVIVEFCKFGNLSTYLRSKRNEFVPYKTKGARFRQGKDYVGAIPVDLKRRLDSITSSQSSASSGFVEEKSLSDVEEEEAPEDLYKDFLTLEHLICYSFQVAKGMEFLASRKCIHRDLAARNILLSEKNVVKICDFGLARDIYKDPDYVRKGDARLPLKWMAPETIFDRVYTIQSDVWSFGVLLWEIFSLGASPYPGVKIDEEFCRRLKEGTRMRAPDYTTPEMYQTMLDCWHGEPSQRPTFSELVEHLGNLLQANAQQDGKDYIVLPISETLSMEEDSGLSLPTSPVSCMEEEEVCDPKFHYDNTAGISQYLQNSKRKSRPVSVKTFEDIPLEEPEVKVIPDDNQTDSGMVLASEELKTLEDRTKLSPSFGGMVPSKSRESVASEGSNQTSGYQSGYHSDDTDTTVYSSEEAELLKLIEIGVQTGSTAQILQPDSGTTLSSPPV
Chain of MAP3K8 (COT) (P41279 whole entry): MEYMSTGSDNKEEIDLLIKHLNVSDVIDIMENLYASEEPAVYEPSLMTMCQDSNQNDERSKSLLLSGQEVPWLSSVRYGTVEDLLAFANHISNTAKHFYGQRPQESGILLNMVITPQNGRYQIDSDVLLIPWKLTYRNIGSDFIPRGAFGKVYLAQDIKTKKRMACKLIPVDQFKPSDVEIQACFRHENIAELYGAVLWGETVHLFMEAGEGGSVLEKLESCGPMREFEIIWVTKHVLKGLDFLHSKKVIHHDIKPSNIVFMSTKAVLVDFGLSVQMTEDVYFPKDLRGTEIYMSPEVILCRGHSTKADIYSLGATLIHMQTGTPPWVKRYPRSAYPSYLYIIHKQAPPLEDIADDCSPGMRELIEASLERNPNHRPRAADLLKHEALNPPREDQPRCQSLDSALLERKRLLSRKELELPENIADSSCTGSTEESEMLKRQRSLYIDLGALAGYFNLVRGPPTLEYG
Chain of RPS6KA3 (RSK2) (P51812 whole entry): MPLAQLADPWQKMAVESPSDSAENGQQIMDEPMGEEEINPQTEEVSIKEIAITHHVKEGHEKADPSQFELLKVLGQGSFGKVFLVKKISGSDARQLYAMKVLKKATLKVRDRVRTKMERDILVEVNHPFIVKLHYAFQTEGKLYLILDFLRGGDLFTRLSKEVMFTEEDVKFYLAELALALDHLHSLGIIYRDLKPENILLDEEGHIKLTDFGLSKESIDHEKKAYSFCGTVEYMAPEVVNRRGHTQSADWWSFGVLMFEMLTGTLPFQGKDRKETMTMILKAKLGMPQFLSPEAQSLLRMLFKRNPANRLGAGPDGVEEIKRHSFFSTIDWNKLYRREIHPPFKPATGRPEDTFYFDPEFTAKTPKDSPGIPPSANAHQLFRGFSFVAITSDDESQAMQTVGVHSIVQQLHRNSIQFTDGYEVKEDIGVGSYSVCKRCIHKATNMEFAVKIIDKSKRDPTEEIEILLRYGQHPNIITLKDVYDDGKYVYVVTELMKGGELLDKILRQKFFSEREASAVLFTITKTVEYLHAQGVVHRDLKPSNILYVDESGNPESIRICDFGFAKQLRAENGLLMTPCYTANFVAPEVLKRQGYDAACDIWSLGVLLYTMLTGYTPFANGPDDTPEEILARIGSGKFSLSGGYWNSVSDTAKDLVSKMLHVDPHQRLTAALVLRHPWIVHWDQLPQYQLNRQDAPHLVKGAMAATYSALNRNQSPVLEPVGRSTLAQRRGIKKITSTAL

As for `C=CC(=O)Nc1cccc(-c2n[nH]c3ccccc23)c1` [GO32], it took 2.79 µM to reach a half-maximal effect in assay [1] (EC50). Also, the “decrease in pERK” value in [2] was “about 25%”. Further, the inhibition at 1 µM was 2% in assay [3]; -5% in assay [4]; 79% in assay [5]; 19% in assay [6]; 3% in assay [7]; -3% in [8]. Besides, the inhibition at 1 µM in [9] was 11%; in [10], -6%; in assay [11], -4%; in [12] it was -10%; in assay [13], 4%; in [14], -7%. Further, the inhibition at 1 µM is 37% in [15]; 8% in assay [16]; 22% in assay [17]; -2% in [18]; 20% in [19]; 2% in assay [20]. In assay [21], the inhibition at 1 µM stood at 12%.

`C=CC(=O)Nc1cccc(-c2n[nH]c3cc(C)ccc23)c1` [GO80]: a half-maximal effect in [1] (EC50) was put at 5.19 µM. Moreover, in [2], the “effect on pERK levels” value is reported as “did not affect”. In addition, the inhibition at 1 µM was 1% in assay [3]; -4% in assay [4]; 77% in [5]; 22% in [6]; -13% in [7]; -2% in assay [8]. Further, the inhibition at 1 µM in assay [9] is 22%; in assay [10] it was -4%; in [11] it was -2%; in assay [12] it was -7%; in [13] it was 6%; in assay [14], -12%. Besides, the inhibition at 1 µM in assay [15] is 8%; in assay [16], 7%; in assay [17] it was 26%; in assay [18], 3%; in assay [19] it was 21%; in assay [20], -1%. The inhibition at 1 µM in assay [21] worked out at 14%.

For orientation: EC50 means the concentration that produces a half-maximal response. Higher therefore signals a less potent agent. By inhibition is commonly meant the relative decrease from the control value, in per cent.
